Like-named read-outs stand apart in the source and are kept apart here.
What was measured:
[1] = test system: BaIMPDHΔL; assay type: biochemical, Bacillus anthracis
[2] = biological target: BaIMPDHΔL; assay type: biochemical, Bacillus anthracis; remark: listed apart in the source

Compound | lower limit of k4 (NADH rebinding) [1] | Ki ([1]; read-out: Ki(Q), predicted) | Ki ([1]; read-out: Ki(Q,B), predicted) | Ki ([2]; read-out: Ki(Q), observed ± std.err.) | Ki ([2]; read-out: Ki(Q,B), observed ± std.err.) | k2 [1] | k−2 [1] | k−7 [1] | lower limit of k−7 (substrate inhibition by NAD+) [1] | Ki ([1]; read-out: Ki(B), predicted) | Km ([1]; read-out: Km(B), predicted) | Kd ([1]; read-out: dissociation equilibrium constant k−7/k7 (substrate inhibition by NAD+)) | Ki ([2]; read-out: Ki(B), observed ± std.err.) | Km ([2]; read-out: Km(B), observed ± std.err.)
NC(=O)C1=CN([C@@H]2O[C@H](COP(=O)(O)OP(=O)(O)OC[C@H]3O[C@@H](n4cnc5c(N)ncnc54)[C@H](O)[C@@H]3O)[C@@H](O)[C@H]2O)C=CC1 [NADH] | > 2e+06 M⁻¹ s⁻¹ | 301 µM | 87.2 µM | 620 ± 360 µM | 97 ± 9 µM | – | – | – | – | – | – | – | – | –
NC(=O)c1ccc[n+]([C@@H]2O[C@H](COP(=O)([O-])OP(=O)(O)OC[C@H]3O[C@@H](n4cnc5c(N)ncnc54)[C@H](O)[C@@H]3O)[C@@H](O)[C@H]2O)c1 [NAD^+] | – | – | – | – | – | 31800 M⁻¹ s⁻¹ | 10.9 s⁻¹ | 566000 s⁻¹ | > 4000 M⁻¹ s⁻¹ | 6610 µM | 415 µM | ~5500 µM | 7400 ± 400 µM | 460 ± 20 µM

From paper PMC5524190 (Biochemistry, 2016)
